Like-named read-outs stand apart in the source and are kept apart here.

Holding throughout (type): in vivo
Test [1] relates to Diabrotica Balteata (Corn Root Worm). The experiment in a line: whole plant or invertebrate. The settings on record: 96 h, read-out: effect in at least one of the two categories (mortality or growth inhibition). How it is done:
Example B3: Diabrotica Balteata (Corn Root Worm)
Maize sprouts, placed on an agar layer in 24-well microtiter plates were treated with aqueous test solutions prepared from 10,000 ppm DMSO stock solutions by spraying. After drying, the plates were infested with L2 larvae (6 to 10 per well). The samples were assessed for mortality and growth inhibition in comparison to untreated samples 4 days after infestation.

The test system of test [2] is Spodoptera littoralis (Egyptian Cotton Leaf Worm). The experiment in a line: Spodoptera littoralis cotton leaf disc spray test. The settings on record: foliar, 72 h, application rate 200 ppm, L1 larvae, 3 days after infestation, read-out: control (at least one of mortality, anti-feedant effect, growth inhibition). As to the method:
Spodoptera littoralis (Egyptian Cotton Leaf Worm)
Cotton leaf discs were placed on agar in 24-well microtiter plates and sprayed with aqueous test solutions prepared from 10,000 ppm DMSO stock solutions. After drying, the leaf discs were infested with five L1 larvae. The samples were assessed for mortality, anti-feedant effect, and growth inhibition in comparison to untreated samples 3 days after infestation. Control of Spodoptera littoralis by a test sample is when at least one of mortality, anti-feedant effect, and growth inhibition is higher than the untreated sample.

Test [3] has as its system Plutella xylostella (Diamond Back Moth). The experiment in a line: whole plant or invertebrate. The settings on record: 120 h, application rate 200 ppm, L2 larvae, 5 days after infestation, read-out: effect in at least one of the two categories (mortality or growth inhibition). How it is done: Example B2: Plutella xylostella (Diamond Back Moth)
24-well microtiter plates with artificial diet were treated with aqueous test solutions prepared from 10,000 ppm DMSO stock solutions by pipetting. After drying, the plates were infested with L2 larvae (10 to 15 per well). The samples were assessed for mortality and growth inhibition in comparison to untreated samples 5 days after infestation.

Setting [4] is: application rate 200 ppm, L2 larvae, 4 days after infestation.

As to `Fc1ccccc1-n1nc(-c2ccc(Cl)cc2)nc1CN1CCC(C(F)(F)F)CC1` [Example 1.5], the percent effect (mortality or growth inhibition) at 200 ppm in test [1] (setting [4]) is ≥ 80%.
Regarding `Cc1ccccc1-c1nc(CN2CCC(c3ncccn3)CC2)n(-c2ccccc2F)n1` [Example 1.36], the percent effect (mortality or growth inhibition) at 200 ppm in test [1] (setting [4]) was ≥ 80%.
For `Cc1cccc(-c2nc(CN3CCC(c4ncccn4)CC3)n(-c3ccccc3F)n2)c1` [Example 1.37], the percent control (mortality, anti-feedant effect or growth inhibition) at 200 ppm in test [2] was ≥ 80%. Also, in test [1] (setting [4]), the percent effect (mortality or growth inhibition) at 200 ppm is ≥ 80%.
On to `NC(=O)C1CCN(Cc2nc(-c3ccc(Cl)cc3)nn2-c2ccccc2F)CC1` [Example 1.47], for which the percent control (mortality, anti-feedant effect or growth inhibition) at 200 ppm in test [2] was ≥ 80%. Besides, the percent effect (mortality or growth inhibition) at 200 ppm in test [1] (setting [4]) was ≥ 80%.
Regarding `Clc1ccc(-c2nc(CN3CCC(c4ncccn4)CC3)n(-c3ccc(Cl)c(Cl)c3)n2)cc1` [Example 1.50], in test [1] (setting [4]), the percent effect (mortality or growth inhibition) at 200 ppm is ≥ 80%.
Consider `Cc1cccc(-n2nc(-c3ccc(Cl)cc3)nc2CN2CCC(c3ncccn3)CC2)c1` [Example 1.51], for which, in test [1] (setting [4]), the percent effect (mortality or growth inhibition) at 200 ppm is ≥ 80%.
With `Cc1ccc(-n2nc(-c3ccc(Cl)cc3)nc2CN2CCC(c3ncccn3)CC2)cc1` [Example 1.52], in test [2], the percent control (mortality, anti-feedant effect or growth inhibition) at 200 ppm was ≥ 80%. The percent effect (mortality or growth inhibition) at 200 ppm in test [1] (setting [4]) was ≥ 80%.
For `Clc1ccc(-c2nc(CN3CCC(c4ncccn4)CC3)n(-c3cccc(Br)c3)n2)cc1` [Example 1.57], the percent effect (mortality or growth inhibition) at 200 ppm in test [1] (setting [4]) was ≥ 80%.
For the compound `Clc1ccc(-c2nc(CN3CCC(c4ncccn4)CC3)n(C3CCC3)n2)cc1` [Example 1.58], the percent effect (mortality or growth inhibition) at 200 ppm in test [1] (setting [4]) is ≥ 80%.
As for `CC(C)n1nc(-c2ccc(Cl)cc2)nc1CN1CCC(c2ncccn2)CC1` [Example 1.60], the percent effect (mortality or growth inhibition) at 200 ppm in test [1] (setting [4]) was ≥ 80%.
Consider `Clc1ccc(-c2nc(CN3CCC(c4ncccn4)CC3)n(-c3ccc(Cl)cc3Cl)n2)cc1` [Example 1.65], for which the percent control (mortality, anti-feedant effect or growth inhibition) at 200 ppm in test [2] is ≥ 80%. Also, the percent effect (mortality or growth inhibition) at 200 ppm in test [1] (setting [4]) was ≥ 80%.
Regarding `Clc1ccc(-c2nc(CN3CCC(c4ncccn4)CC3)n(-c3cccc(Cl)c3)n2)cc1` [Example 1.69], the percent effect (mortality or growth inhibition) at 200 ppm in test [1] (setting [4]) is ≥ 80%.
Turning to `Cc1ccc(-n2nc(-c3ccc(Cl)cc3)nc2CN2CCC(c3ncccn3)CC2)cc1C` [Example 1.73], in test [1] (setting [4]), the percent effect (mortality or growth inhibition) at 200 ppm is ≥ 80%.
`Cc1ccc(C)c(-n2nc(-c3ccc(Cl)cc3)nc2CN2CCC(c3ncccn3)CC2)c1` [Example 1.74]: in test [1] (setting [4]), the percent effect (mortality or growth inhibition) at 200 ppm is ≥ 80%.
On the same count and under the same terms, the value for `COc1cccc(-n2nc(-c3ccc(Cl)cc3)nc2CN2CCC(c3ncccn3)CC2)c1` [Example 1.75] was ≥ 80%.
In the case of `COc1ccc(-n2nc(-c3ccc(Cl)cc3)nc2CN2CCC(c3ncccn3)CC2)cc1` [Example 1.79], the percent control (mortality, anti-feedant effect or growth inhibition) at 200 ppm in test [2] was ≥ 80%. The percent effect (mortality or growth inhibition) at 200 ppm in test [1] (setting [4]) is ≥ 80%.
Turning to `Cc1cccc(-n2nc(-c3ccc(Cl)cc3)nc2CN2CCC(c3ncccn3)CC2)c1C` [Example 1.82], the percent control (mortality, anti-feedant effect or growth inhibition) at 200 ppm in test [2] is ≥ 80%. In addition, the percent effect (mortality or growth inhibition) at 200 ppm in test [1] (setting [4]) was ≥ 80%.
For `Clc1ccc(-c2nc(CN3CCC(c4ncccn4)CC3)n(-c3cc(Cl)ccc3Cl)n2)cc1` [Example 1.86], in test [1] (setting [4]), the percent effect (mortality or growth inhibition) at 200 ppm was ≥ 80%.
As to `Cc1ccc(-n2nc(-c3ccc(Cl)cc3)nc2CN2CCC(c3ncccn3)CC2)c(C)c1` [Example 1.87], in test [2], the percent control (mortality, anti-feedant effect or growth inhibition) at 200 ppm is ≥ 80%. In test [1] (setting [4]), the percent effect (mortality or growth inhibition) at 200 ppm is ≥ 80%.
In the case of `Fc1ccccc1-n1nc(Cc2ccc(Cl)cc2)nc1CN1CCC(c2ncccn2)CC1` [Example 1.91], the percent control (mortality, anti-feedant effect or growth inhibition) at 200 ppm in test [2] is ≥ 80%. Also, the percent effect (mortality or growth inhibition) at 200 ppm in test [1] (setting [4]) was ≥ 80%.
As to `Cc1ccc(-c2nc(CN3CCC(c4ncccn4)CC3)n(-c3ccccc3F)n2)cc1F` [Example 1.92], in test [2], the percent control (mortality, anti-feedant effect or growth inhibition) at 200 ppm is ≥ 80%. The percent effect (mortality or growth inhibition) at 200 ppm in test [1] (setting [4]) was ≥ 80%.
As to `Fc1ccccc1-n1nc(C2CC2)nc1CN1CCC(c2ncccn2)CC1` [Example 1.93], the percent effect (mortality or growth inhibition) at 200 ppm in test [1] (setting [4]) is ≥ 80%.
As for `Fc1ccccc1-n1nc(-c2ccccc2)nc1CN1CCC(c2ncccn2)CC1` [Example 1.94], the percent control (mortality, anti-feedant effect or growth inhibition) at 200 ppm in test [2] is ≥ 80%. In addition, the percent effect (mortality or growth inhibition) at 200 ppm in test [1] (setting [4]) is ≥ 80%.
As to `Cc1ccc(-c2nc(CN3CCC(c4ncccn4)CC3)n(-c3ccccc3F)n2)cc1` [Example 1.95], in test [2], the percent control (mortality, anti-feedant effect or growth inhibition) at 200 ppm was ≥ 80%. Further, the percent effect (mortality or growth inhibition) at 200 ppm in test [1] (setting [4]) was ≥ 80%.
Take `Fc1ccccc1-n1nc(-c2cccs2)nc1CN1CCC(c2ncccn2)CC1` [Example 1.96]: in test [1] (setting [4]), the percent effect (mortality or growth inhibition) at 200 ppm was ≥ 80%.
Still for that read-out and setting: the value for `CCc1nc(CN2CCC(c3ncccn3)CC2)n(-c2ccccc2F)n1` [Example 1.99] was ≥ 80%.
In the case of `CC(C)c1nc(CN2CCC(c3ncccn3)CC2)n(-c2ccccc2F)n1` [Example 1.100], the percent effect (mortality or growth inhibition) at 200 ppm in test [1] (setting [4]) is ≥ 80%.
On to `COc1ccc(-c2nc(CN3CCC(c4ncccn4)CC3)n(-c3ccccc3F)n2)cc1` [Example 1.101], for which the percent control (mortality, anti-feedant effect or growth inhibition) at 200 ppm in test [2] was ≥ 80%. The percent effect (mortality or growth inhibition) at 200 ppm in test [1] (setting [4]) was ≥ 80%.
As for `Fc1ccccc1-n1nc(-c2ccccn2)nc1CN1CCC(c2ncccn2)CC1` [Example 1.102], the percent effect (mortality or growth inhibition) at 200 ppm in test [1] (setting [4]) was ≥ 80%.
For the compound `Fc1ccccc1-n1nc(-c2ccc(Cl)cc2)nc1CN1CCC(c2ncc[nH]2)CC1` [Example 1.112], in test [1] (setting [4]), the percent effect (mortality or growth inhibition) at 200 ppm is ≥ 80%.
Turning to `Fc1ccccc1-n1nc(-c2ccc(Cl)cc2)nc1CN1CCC(c2ncon2)CC1` [Example 1.113], the percent control (mortality, anti-feedant effect or growth inhibition) at 200 ppm in test [2] was ≥ 80%. In test [1] (setting [4]), the percent effect (mortality or growth inhibition) at 200 ppm is ≥ 80%.
Consider `Fc1ccccc1-n1nc(-c2ccc(Cl)cc2)nc1CN1CCC(c2nccs2)CC1` [Example 1.115], for which the percent control (mortality, anti-feedant effect or growth inhibition) at 200 ppm in test [2] is ≥ 80%. Besides, the percent effect (mortality or growth inhibition) at 200 ppm in test [1] (setting [4]) was ≥ 80%.
Turning to `Fc1ccccc1-n1nc(-c2ccc(Cl)cc2)nc1CN1CCC(c2ccncn2)CC1` [Example 1.116], the percent control (mortality, anti-feedant effect or growth inhibition) at 200 ppm in test [2] was ≥ 80%. The percent effect (mortality or growth inhibition) at 200 ppm in test [1] (setting [4]) is ≥ 80%.
Regarding `Cn1ccnc1C1CCN(Cc2nc(-c3ccc(Cl)cc3)nn2-c2ccccc2F)CC1` [Example 1.117], in test [2], the percent control (mortality, anti-feedant effect or growth inhibition) at 200 ppm was ≥ 80%. Further, the percent effect (mortality or growth inhibition) at 200 ppm in test [1] (setting [4]) was ≥ 80%.
In the case of `Cc1nnc(C2CCN(Cc3nc(-c4ccc(Cl)cc4)nn3-c3ccccc3F)CC2)o1` [Example 1.118], the percent effect (mortality or growth inhibition) at 200 ppm in test [1] (setting [4]) is ≥ 80%.
`Fc1ccccc1-n1nc(-c2ccc(Cl)cc2)nc1CN1CCC(c2cscn2)CC1` [Example 1.119]: in test [2], the percent control (mortality, anti-feedant effect or growth inhibition) at 200 ppm is ≥ 80%. The percent effect (mortality or growth inhibition) at 200 ppm in test [1] (setting [4]) was ≥ 80%.
Regarding `Fc1ccccc1-n1nc(-c2ccc(Cl)cc2)nc1CN1CCC(c2ncno2)CC1` [Example 1.121], in test [1] (setting [4]), the percent effect (mortality or growth inhibition) at 200 ppm was ≥ 80%.
As to `Cc1ccnc(C2CCN(Cc3nc(-c4ccc(Cl)cc4)nn3-c3ccccc3F)CC2)n1` [Example 1.125], the percent control (mortality, anti-feedant effect or growth inhibition) at 200 ppm in test [2] is ≥ 80%. For the same compound, the percent effect (mortality or growth inhibition) at 200 ppm in test [1] (setting [4]) is ≥ 80%.
In the case of `Fc1ccccc1-n1nc(-c2ccc(Cl)cc2)nc1CN1CC=C(c2ccc(Cl)cn2)CC1` [Example 3.1], in test [1], the percent effect (mortality or growth inhibition) at 200 ppm was ≥ 80%.
For `Fc1ccccc1-n1nc(-c2ccc(Cl)cc2)nc1CN1CCC(c2cc(Cl)cc(Cl)c2)(C(F)(F)F)C1` (stereo not shown) [Example 5.2], the percent effect (mortality or growth inhibition) at 200 ppm in test [3] is ≥ 80%.
Regarding `Fc1ccccc1-n1nc(-c2ccc(Cl)cc2)nc1CN1CCC2(CC1)CC(C1CC1)=NO2` [Example 5.4], the percent control (mortality, anti-feedant effect or growth inhibition) at 200 ppm in test [2] is ≥ 80%. The percent effect (mortality or growth inhibition) at 200 ppm in test [1] (setting [4]) is ≥ 80%.
Consider `Fc1ccccc1-n1nc(-c2ccc(Cl)cc2)nc1CN1CCC2(CC1)CC(C(F)(F)F)=NO2` [Example 5.5], for which the percent control (mortality, anti-feedant effect or growth inhibition) at 200 ppm in test [2] is ≥ 80%. For the same compound, the percent effect (mortality or growth inhibition) at 200 ppm in test [1] (setting [4]) is ≥ 80%.
Consider `CCC1CCCCN1Cc1nc(-c2ccc(Cl)cc2)nn1-c1ccccc1F` (stereo not shown) [Example 5.16], for which the percent effect (mortality or growth inhibition) at 200 ppm in test [1] (setting [4]) was ≥ 80%.
For the compound `CCOC(=O)C1CCCN(Cc2nc(-c3ccc(Cl)cc3)nn2-c2ccccc2F)C1` (stereo not shown) [Example 5.17], the percent effect (mortality or growth inhibition) at 200 ppm in test [1] (setting [4]) was ≥ 80%.
With `CCC1CCCN(Cc2nc(-c3ccc(Cl)cc3)nn2-c2ccccc2F)C1` (stereo not shown) [Example 5.21], the percent effect (mortality or growth inhibition) at 200 ppm in test [1] (setting [4]) was ≥ 80%.
Still for that read-out and setting: to `CCOC(=O)C1CCCCN1Cc1nc(-c2ccc(Cl)cc2)nn1-c1ccccc1F` (stereo not shown) [Example 5.22] belongs ≥ 80%.
As to `CC1CCCN1Cc1nc(-c2ccc(Cl)cc2)nn1-c1ccccc1F` (stereo not shown) [Example 5.30], the percent effect (mortality or growth inhibition) at 200 ppm in test [1] (setting [4]) was ≥ 80%.

For the origin of these results see patent publication US20190161499A1, “PESTICIDALLY ACTIVE 1,2,4-TRIAZOLE DERIVATIVES” (SYNGENTA PARTICIPATIONS AG, priority 2015, published 2019).
